Measurements: patent US20260083865A1, “PROSTATE SPECIFIC MEMBRANE ANTIGEN (PSMA) LIGANDS AND USE THEREOF” (priority 2022, published 2026)
Like-named read-outs stand apart in the source and are kept apart here. Numbered stars: 1 amine (or outer) side, 2 acyl side, 3 side chain; on linkers, the order of the positions; unused ones are H or OH. Bridge positions count the residues as written; N and C are the ends. Square brackets hold non-standard residues; d marks the D form. Side chains are listed from the residue outwards. Peptide text beside a SMILES is read from it. * marks the point of attachment. X7 = O=C(O)CN1CCN(CC(=O)O)CCN(CC(=O)NC2CCN(CC(=O)*)CC2)CCN(CC(=O)O)CC1; DOTA = O=C(O)CN1CCN(CC(=O)O)CCN(CC(=O)*)CCN(CC(=O)O)CC1; Pro(trans-4-F) = O=C(O)[C@@H]1C[C@@H](F)CN1; Phe(4-Cl) = N[C@@H](Cc1ccc(Cl)cc1)C(=O)O; Propanoyl(3-SO2NH2) = NS(=O)(=O)CCC(=O)*; X4 = O=C(CN1CCC(N[*:1])CC1)[*:2]; X1 = O=C(CC1CCN([*:1])CC1)[*:2]; Cit = NC(=O)NCCC[C@H](N)C(=O)O; Tle = CC(C)(C)[C@H](N)C(=O)O; Dap = NC[C@H](N)C(=O)O; Aib = CC(C)(N)C(=O)O; CO = O=C([*:1])[*:2]; Guanidino = N=C(N)N*; NHBu = CCCCN*

Legend:
[1] = target: T1, PSMA-expressing C4-2 cells (Homo sapiens, UniProt Q04609); assay: FACS binding assay (competition with 50 nM PSM-0183); details: read-out: pIC50 [C4-2] CAT (converted)
T1 construct: PSMA-expressing C4-2 cells (ATCC, Cat. No. CRL-3314) were cultured in RPMI-1640; host or cells: C4-2 cells
T1 sequence (Q04609 whole entry): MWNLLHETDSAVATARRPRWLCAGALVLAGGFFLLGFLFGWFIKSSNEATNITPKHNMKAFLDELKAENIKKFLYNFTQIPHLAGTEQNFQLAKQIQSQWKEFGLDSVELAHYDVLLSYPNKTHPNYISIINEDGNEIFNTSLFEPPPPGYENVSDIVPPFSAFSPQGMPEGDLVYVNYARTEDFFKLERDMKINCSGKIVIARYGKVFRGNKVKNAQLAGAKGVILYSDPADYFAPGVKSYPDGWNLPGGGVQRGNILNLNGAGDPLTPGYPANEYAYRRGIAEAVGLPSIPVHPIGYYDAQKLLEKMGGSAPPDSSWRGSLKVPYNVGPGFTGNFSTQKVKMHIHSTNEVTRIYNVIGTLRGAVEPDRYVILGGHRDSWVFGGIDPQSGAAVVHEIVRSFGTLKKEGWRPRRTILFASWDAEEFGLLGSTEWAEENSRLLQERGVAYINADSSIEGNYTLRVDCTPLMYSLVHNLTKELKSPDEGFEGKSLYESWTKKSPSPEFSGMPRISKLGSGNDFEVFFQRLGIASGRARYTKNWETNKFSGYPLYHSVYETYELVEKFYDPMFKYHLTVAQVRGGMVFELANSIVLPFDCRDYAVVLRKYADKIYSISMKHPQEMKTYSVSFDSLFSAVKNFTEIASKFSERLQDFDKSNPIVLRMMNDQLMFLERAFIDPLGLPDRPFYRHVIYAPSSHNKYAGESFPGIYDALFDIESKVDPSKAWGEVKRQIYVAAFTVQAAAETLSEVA
Procedure, shortened: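 C4-2 cells were incubated 1 h at 4 °C with 50 nM AF488-labelled peptide PSM-0183 plus increasing test compound concentrations, then washed twice in ice-cold buffer. Median fluorescence in the AF488 channel was read by flow cytometry. IC50/pIC50 was derived by 4PL fitting of MFI versus concentration.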

[2] = target: T2, Fc-fusion protein of human PSMA (hPSMA-Fc) (Homo sapiens, UniProt Q04609); assay: Surface plasmon resonance assay (Biacore T200, single cycle kinetic); format: binding; details: hPSMA-Fc, 25° C., read-out: pKD CAT (converted)
T2 construct: purchased Acro Biosystems PSA-H5264
T2 sequence (Q04609 44-750 limits assumed): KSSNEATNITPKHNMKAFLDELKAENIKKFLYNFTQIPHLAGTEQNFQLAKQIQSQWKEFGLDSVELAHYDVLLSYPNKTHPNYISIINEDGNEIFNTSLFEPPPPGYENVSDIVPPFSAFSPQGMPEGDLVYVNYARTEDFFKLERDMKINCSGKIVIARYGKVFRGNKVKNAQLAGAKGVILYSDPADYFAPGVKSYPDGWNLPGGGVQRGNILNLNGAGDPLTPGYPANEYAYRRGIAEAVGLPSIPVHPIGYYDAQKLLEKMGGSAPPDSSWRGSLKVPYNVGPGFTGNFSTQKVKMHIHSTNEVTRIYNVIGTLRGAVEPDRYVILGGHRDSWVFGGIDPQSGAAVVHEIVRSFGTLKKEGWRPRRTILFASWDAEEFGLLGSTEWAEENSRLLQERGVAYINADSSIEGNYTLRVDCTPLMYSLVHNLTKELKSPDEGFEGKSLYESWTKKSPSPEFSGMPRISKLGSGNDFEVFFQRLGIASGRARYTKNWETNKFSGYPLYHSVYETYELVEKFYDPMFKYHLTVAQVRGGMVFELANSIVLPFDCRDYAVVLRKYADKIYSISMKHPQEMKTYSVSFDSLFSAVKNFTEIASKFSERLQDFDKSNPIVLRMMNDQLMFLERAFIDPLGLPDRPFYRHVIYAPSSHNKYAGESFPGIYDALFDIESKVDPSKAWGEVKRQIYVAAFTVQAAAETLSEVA
Procedure, shortened: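 hPSMA-Fc was captured (~1000 RU) on an Fc-binding-peptide CM5 chip, and compounds were run in single cycle kinetic mode at 25° C in HBST with 0.1% DMSO. Double-blank-corrected sensorgrams were fitted to a 1:1 Langmuir model to give KD, reported as pKD.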

[3] = FACS binding, PSMA-expressing C4-2 cells, pIC50 category
[4] = FACS binding, C4-2 cells, competition with 50 nM PSM-0183, category
[5] = SPR, single cycle kinetic, category
[6] = pIC50 category of FACS binding, C4-2 cells
[7] = pKD category for PSMA SPR activity assay

CC(=O)NC(C)(C)C(=O)N[C@@H](Cc1ccc(Cl)cc1)C(=O)N[C@H]1CSSC[C@@H](C(=O)N[C@H](C(=O)N[C@H](C(=O)N2CCC(CC(=O)N[C@H](CCCCNC(=O)CN3CCN(CC(=O)O)CCN(CC(=O)O)CCN(CC(=O)O)CC3)C(N)=O)CC2)[C@@H](C)O)C(C)(C)C)NC(=O)[C@H](CC(N)=O)NC(=O)C(C)(C)NC(=O)[C@H](CCCNC(=N)N)NC(=O)[C@H](CCCCN)NC1=O [PSM-0349, Ac-Aib-Pcf-[Cys-Lys-Arg-Aib-Asn-Cys]-Tle-Thr-Cmp-lys(DOTA)-NH2] (Ac-[Aib][Phe(4-Cl)]CKR[Aib]NC[Tle]T[X1][dK](DOTA)-NH2; disulfide 3-8)
IC50 [1, 3]: < 0.2 µM
Kd ([2]; PSMA SPR assay, pKD category): < 0.0126 µM

C[C@@H](O)[C@H](NC(=O)[C@@H](NC(=O)[C@@H]1CSSC[C@H](NC(=O)[C@H](Cc2ccccc2)NC(=O)C(C)(C)NC(=O)CN2CCC(NC(=O)CN3CCN(CC(=O)O)CCN(CC(=O)O)CCN(CC(=O)O)CC3)CC2)C(=O)N[C@@H](CCCCN)C(=O)N[C@@H](CCCNC(=N)N)C(=O)NC(C)(C)C(=O)N[C@@H](CC(N)=O)C(=O)N1)C(C)(C)C)C(N)=O [PSM-0261, DOTA-APAc-Aib-Phe-[Cys-Lys-Arg-Aib-Asn-Cys]-Tle-Thr-NH2] ({DOTA}-[X4][Aib]FCKR[Aib]NC[Tle]T-NH2; disulfide 4-9)
IC50 [1, 4]: < 0.2 µM
Kd [2, 5]: 0.0126 to 0.126 µM

CC[C@H](C)[C@H](NC(=O)CC1CCN(C(=O)CN2CCN(CC(=O)O)CCN(CC(=O)O)CCN(CC(=O)O)CC2)CC1)C(=O)NC(C)(C)C(=O)N[C@@H](Cc1ccccc1)C(=O)N[C@H]1CSSC[C@@H](C(=O)N[C@H](C(=O)N[C@H](C(N)=O)[C@@H](C)O)C(C)(C)C)NC(=O)[C@H](CC(N)=O)NC(=O)C(C)(C)NC(=O)[C@H](CCCNC(=N)N)NC(=O)[C@H](CCCCN)NC1=O [PSM-0357, DOTA-Cmp-Ile-Aib-Phe-[Cys-Lys-Arg-Aib-Asn-Cys]-Tle-Thr-NH2] ({DOTA}-[X1]I[Aib]FCKR[Aib]NC[Tle]T-NH2; disulfide 5-10)
IC50 [1, 3]: 0.2 to 1.26 µM
Kd ([2]; PSMA SPR assay, pKD category): 0.0126 to 0.126 µM

C[C@@H](O)[C@H](NC(=O)[C@@H](NC(=O)[C@@H]1CSSC[C@H](NC(=O)[C@H](Cc2ccc(Cl)cc2)NC(=O)C(C)(C)NC(=O)[C@@H](NC(=O)CC2CCN(C(=O)CN3CCN(CC(=O)O)CCN(CC(=O)O)CCN(CC(=O)O)CC3)CC2)[C@@H](C)O)C(=O)N[C@@H](CCCCN)C(=O)N[C@@H](CNC(=O)NC(=N)N)C(=O)NC(C)(C)C(=O)N[C@@H](CC(N)=O)C(=O)N1)C(C)(C)C)C(N)=O [PSM-0546, DOTA-Cmp-Thr-Aib-Pcf-[Cys-Lys-Urr-Aib-Asn-Cys]-Tle-Thr-NH2] ({DOTA}-[X1]T[Aib][Phe(4-Cl)]CK[Dap]([CO-Guanidino])[Aib]NC[Tle]T-NH2; disulfide 5-10)
IC50 [1, 6]: < 0.2 µM
Kd [2, 7]: < 0.0126 µM

C[C@@H](O)[C@H](NC(=O)[C@@H](NC(=O)[C@@H]1CSSC[C@H](NC(=O)[C@H](Cc2ccc(Cl)cc2)NC(=O)C(C)(C)NC(=O)CCS(N)(=O)=O)C(=O)N[C@@H](CCCCN)C(=O)N[C@@H](CCCNC(=N)N)C(=O)N[C@@H](CCCCNC(=O)CN2CCC(NC(=O)CN3CCN(CC(=O)O)CCN(CC(=O)O)CCN(CC(=O)O)CC3)CC2)C(=O)N[C@@H](CC(N)=O)C(=O)N1)C(C)(C)C)C(N)=O [PSM-0188, SaPr-Aib-Pcf-[Cys-Lys-Arg-Lys(DOTA-APAc)-Asn-Cys]-Tle-Thr-NH2] ({Propanoyl(3-SO2NH2)}-[Aib][Phe(4-Cl)]CKRK(X7)NC[Tle]T-NH2; disulfide 3-8)
IC50 [1, 4]: < 0.2 µM
Kd [2, 5]: < 0.0126 µM

CC(=O)N[C@H](C(=O)NC(C)(C)C(=O)N[C@@H](Cc1ccccc1)C(=O)N[C@H]1CSSC[C@@H](C(=O)N[C@H](C(=O)N[C@H](C(=O)N[C@@H](CC(=O)O)C(N)=O)[C@@H](C)O)C(C)(C)C)NC(=O)[C@H](CC(N)=O)NC(=O)[C@@H]2C[C@@H](F)CN2C(=O)[C@H](CCCNC(=N)N)NC(=O)[C@H](CCCCN)NC1=O)[C@@H](C)O [PSM-0392, Ac-Thr-Aib-Phe-[Cys-Lys-Arg-4Tfp-Asn-Cys]-Tle-Thr-Asp-NH2] (Ac-T[Aib]FCKR[Pro(trans-4-F)]NC[Tle]TD-NH2; disulfide 4-9)
IC50 [1, 6]: < 0.2 µM
Kd [2, 7]: < 0.0126 µM

CCCCNC(=O)N[C@H](C(=O)NC(C)(C)C(=O)N[C@@H](Cc1ccc(Cl)cc1)C(=O)N[C@H]1CSSC[C@@H](C(=O)N[C@H](C(=O)N[C@H](C(=O)N2CCC(CC(=O)N[C@H](CCCCNC(=O)CN3CCN(CC(=O)O)CCN(CC(=O)O)CCN(CC(=O)O)CC3)C(N)=O)CC2)[C@@H](C)O)C(C)(C)C)NC(=O)[C@H](CC(N)=O)NC(=O)C(C)(C)NC(=O)[C@H](CCCNC(N)=O)NC(=O)[C@H](CCCCN)NC1=O)[C@@H](C)O [PSM-0204, nBuCAyl-Thr-Aib-Pcf-[Cys-Lys-Cit-Aib-Asn-Cys]-Tle-Thr-Cmp-lys(DOTA)-NH2] ({NHBu-CO}-T[Aib][Phe(4-Cl)]CK[Cit][Aib]NC[Tle]T[X1][dK](DOTA)-NH2; disulfide 4-9)
IC50 [1, 4]: < 0.2 µM
Kd [2, 5]: 0.0126 to 0.126 µM
